According to patent US20240239767A1 (AstraZeneca AB, priority 2022, published 2024):

What was measured:
[1] = molecular target: T1, potassium ion channel hERG (human Ether-á-go-go-Related Gene) (Homo sapiens, UniProt Q12809); test: Assay 5 - hERG assay (SyncroPatch 384PE patch clamp, CHO cells); assay type: cell-based; conditions: geometric mean, CHO cells over-expressing hERG, read-out: Assay 5 (hERG Hu CHO IF EPh CR-Syncro) GMean IC50
T1 construct: expressed in transfected cells; host or cells: Chinese hamster ovary K1 (CHO)
In short: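 Automated whole-cell patch clamp at room temperature on CHO-K1 cells over-expressing hERG, using K-fluoride/escin internal solution (pH 7.2) and NMDG-containing external solution (pH 7.4). Compounds were tested in a 6-point cumulative format, 0.33% final DMSO. Wells accepted only with seal >30 MegaOhm, Z′>0.4 and current >0.2 nA.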

[2] = molecular target: GSK3b (Glycogen synthase kinase-3 beta) (Homo sapiens, UniProt P49841); test: Assay 6 - GSK3b assay (ThermoFisher, FRET Z-Lyte); assay type: biochemical; conditions: geometric mean; ATP Conc: 10.000 μM; read-out: Assay 6 (GSK3B FRET-Z-Lyte CR) GMean IC50 (μM) ATP Conc: 10.000
In short: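 Z-Lyte FRET kinase assay: 0.22-0.92 ng GSK3β with 2 μM Ser/Thr 09 peptide in 50 mM HEPES pH 7.5, 10 mM MgCl2, 1 mM EGTA, 0.01% BRIJ-35, 60 min at room temperature, then 60 min development. Compounds in 1% DMSO, 10-point 3-fold dilutions from 10 μM; sigmoidal dose-response fit.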

PCSK9 [3] = molecular target: T2, PCSK9 (Homo sapiens, UniProt Q8NBP7, G670E/V474I); test: cell-based
Target sequence in this assay (Q8NBP7 31-152): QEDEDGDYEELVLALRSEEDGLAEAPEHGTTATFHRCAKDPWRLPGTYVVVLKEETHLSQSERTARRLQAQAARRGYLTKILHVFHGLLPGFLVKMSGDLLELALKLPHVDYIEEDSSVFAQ
Target sequence in this assay (Q8NBP7 153-692 V474I/G670E): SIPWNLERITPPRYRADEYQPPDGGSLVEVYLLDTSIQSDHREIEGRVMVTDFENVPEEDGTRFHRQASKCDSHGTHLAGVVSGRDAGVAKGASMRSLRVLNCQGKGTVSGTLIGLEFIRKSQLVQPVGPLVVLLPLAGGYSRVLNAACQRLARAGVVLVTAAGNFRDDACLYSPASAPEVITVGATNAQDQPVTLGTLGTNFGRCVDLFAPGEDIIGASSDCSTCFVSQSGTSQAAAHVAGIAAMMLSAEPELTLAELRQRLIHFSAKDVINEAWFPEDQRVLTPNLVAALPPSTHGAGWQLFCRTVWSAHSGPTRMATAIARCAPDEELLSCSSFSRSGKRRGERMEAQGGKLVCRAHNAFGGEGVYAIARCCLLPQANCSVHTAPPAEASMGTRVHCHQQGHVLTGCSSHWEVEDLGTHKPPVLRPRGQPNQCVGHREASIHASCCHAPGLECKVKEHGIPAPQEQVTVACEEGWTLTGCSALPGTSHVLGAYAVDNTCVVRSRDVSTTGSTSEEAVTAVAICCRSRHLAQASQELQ

PCSK9 [4] = molecular target: T2, PCSK9; test: biochemical
Target sequence in this assay (Q8NBP7 with tags, fused parts or gaps V474I/G670E): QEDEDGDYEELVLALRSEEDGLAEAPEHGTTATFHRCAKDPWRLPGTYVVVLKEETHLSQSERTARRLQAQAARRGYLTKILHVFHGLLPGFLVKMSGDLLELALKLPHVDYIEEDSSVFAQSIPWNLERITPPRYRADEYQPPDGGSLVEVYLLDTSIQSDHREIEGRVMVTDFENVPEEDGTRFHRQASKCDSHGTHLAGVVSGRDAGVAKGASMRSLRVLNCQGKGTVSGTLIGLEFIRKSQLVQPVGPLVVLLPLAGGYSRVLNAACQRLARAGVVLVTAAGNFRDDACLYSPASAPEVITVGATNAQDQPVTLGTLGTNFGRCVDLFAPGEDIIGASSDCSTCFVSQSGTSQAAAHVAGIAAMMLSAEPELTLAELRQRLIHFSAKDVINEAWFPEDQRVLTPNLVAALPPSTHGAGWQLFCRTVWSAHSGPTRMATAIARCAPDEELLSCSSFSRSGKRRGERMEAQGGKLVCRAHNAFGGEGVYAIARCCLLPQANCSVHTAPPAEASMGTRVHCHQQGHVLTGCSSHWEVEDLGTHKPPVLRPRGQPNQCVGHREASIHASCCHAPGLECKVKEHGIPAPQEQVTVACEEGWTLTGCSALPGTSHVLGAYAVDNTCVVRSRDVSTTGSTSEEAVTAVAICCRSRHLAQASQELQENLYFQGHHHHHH

PCSK9 [5] = molecular target: T3, PCSK9 (Homo sapiens, UniProt Q8NBP7); test: Assay 2 - Biophysical human PCSK9 assay (SPR, Biacore); assay type: binding; design: biotinylated human PCSK9 (31-692)-Avi-His6; conditions: geometric mean; SPR single-cycle kinetics, 30° C.; read-out: Assay 2 (PCSK9 BIAcore DBA CR) GMean Kd
Procedure: The SPR binding experiments were performed on a Biacore S200 optical biosensor unit at 30° C. A Series S Sensor Chip SA that is designed to bind biotinylated molecules for interaction analysis in Biacore systems was equilibrated at room temperature prior to use. The running buffer for protein tethering and subsequent ligand binding experiments was 10 mM HEPES pH 7.4, 150 mM NaCl, 0.05% (v/v) Tween 20 pH 7.4.
For the surface tethering of PCSK9, biotinylated human PCSK9 (31-692)-Avi-His6 at a concentration of 0.5 mg/mL was used. Prior to the surface tethering, the surface was exposed to a solution of 50 mM NaOH, 500 mM NaCl via 3 consecutive injections of this solution with a contact time of 60 s and a flowrate of 10 μL min- to remove non-conjugated streptavidin. The PCSK9 protein was diluted to a concentration of 20 μg/mL using running buffer and injected with a contact time of 180-300 s and a flowrate of 10 μL min^−1 over a single flow channel (typically flow channel 2 or flow channel 4) with the aim to achieve protein capture levels of >5000 response units (RU). Remaining biotin binding sites were blocked via 2 consecutive injections of a 10 μM D-biotin solution in running buffer with a contact time of 60 s and a flowrate of 10 μL min^−1 over all flow-channels.
The binding experiments were all performed at a flow rate of 30 μL min^−1 and by employing the method of single-cycle kinetics. This approach involves the sequential injection of a compound concentration series without regeneration steps. A contact time between 90-150 s was selected, which was followed by a 40 min dissociation phase to allow for a proper estimation of the dissociation rate constant. Test compounds were delivered in DMSO at a concentration of 10 mM and a digital dispenser HP D300 was used to set up the compound concentration series using 6 concentrations. The tested concentrations have been 30, 100, 300, 1000, 3000 and 10000 nM. Prior to injecting any compound, the surfaces were equilibrated by injecting running buffer over them in three separate pulses. The data collection rate was set to 10 Hz.
The raw sensorgrams of the compound injections were first subjected to reference subtraction (subtracting the signal from flow channel 1 and/or 3 from the signal from channels 2 and/or 4 respectively) and then blank subtraction (subtracting the signal from injecting DMSO controls from the reference subtracted data). The resulting double-referenced sensorgrams were then fitted using a 1:1 binding interaction model using the manufactures software package to extract kinetic- and affinity data.
Target sequence in this assay (Q8NBP7 31-692): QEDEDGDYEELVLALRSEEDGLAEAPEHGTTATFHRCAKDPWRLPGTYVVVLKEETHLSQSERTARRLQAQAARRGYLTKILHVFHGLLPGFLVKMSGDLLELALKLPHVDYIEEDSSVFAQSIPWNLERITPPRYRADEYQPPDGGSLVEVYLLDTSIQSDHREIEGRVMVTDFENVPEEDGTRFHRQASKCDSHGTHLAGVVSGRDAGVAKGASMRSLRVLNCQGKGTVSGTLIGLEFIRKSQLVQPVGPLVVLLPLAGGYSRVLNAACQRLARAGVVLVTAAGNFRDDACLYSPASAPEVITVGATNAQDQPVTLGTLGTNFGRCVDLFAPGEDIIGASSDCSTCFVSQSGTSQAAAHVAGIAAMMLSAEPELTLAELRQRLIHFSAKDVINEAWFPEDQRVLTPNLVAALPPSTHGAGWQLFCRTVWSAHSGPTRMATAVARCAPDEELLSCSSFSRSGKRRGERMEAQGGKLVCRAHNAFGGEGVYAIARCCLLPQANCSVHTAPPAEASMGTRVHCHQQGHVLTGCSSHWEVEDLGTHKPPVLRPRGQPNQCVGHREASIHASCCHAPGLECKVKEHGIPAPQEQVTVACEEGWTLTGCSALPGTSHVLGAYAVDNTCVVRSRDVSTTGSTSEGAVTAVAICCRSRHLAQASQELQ

PCSK9 [6] = molecular target: T3, PCSK9; conditions: clinical trials, compared to placebo (Elbitar 2016); cited from earlier work
Target sequence in this assay (Q8NBP7 153-692): as the sequence (Q8NBP7 153-692 V474I/G670E) above, with I322V, E518G counted along it

T1 sequence (Q12809 whole entry): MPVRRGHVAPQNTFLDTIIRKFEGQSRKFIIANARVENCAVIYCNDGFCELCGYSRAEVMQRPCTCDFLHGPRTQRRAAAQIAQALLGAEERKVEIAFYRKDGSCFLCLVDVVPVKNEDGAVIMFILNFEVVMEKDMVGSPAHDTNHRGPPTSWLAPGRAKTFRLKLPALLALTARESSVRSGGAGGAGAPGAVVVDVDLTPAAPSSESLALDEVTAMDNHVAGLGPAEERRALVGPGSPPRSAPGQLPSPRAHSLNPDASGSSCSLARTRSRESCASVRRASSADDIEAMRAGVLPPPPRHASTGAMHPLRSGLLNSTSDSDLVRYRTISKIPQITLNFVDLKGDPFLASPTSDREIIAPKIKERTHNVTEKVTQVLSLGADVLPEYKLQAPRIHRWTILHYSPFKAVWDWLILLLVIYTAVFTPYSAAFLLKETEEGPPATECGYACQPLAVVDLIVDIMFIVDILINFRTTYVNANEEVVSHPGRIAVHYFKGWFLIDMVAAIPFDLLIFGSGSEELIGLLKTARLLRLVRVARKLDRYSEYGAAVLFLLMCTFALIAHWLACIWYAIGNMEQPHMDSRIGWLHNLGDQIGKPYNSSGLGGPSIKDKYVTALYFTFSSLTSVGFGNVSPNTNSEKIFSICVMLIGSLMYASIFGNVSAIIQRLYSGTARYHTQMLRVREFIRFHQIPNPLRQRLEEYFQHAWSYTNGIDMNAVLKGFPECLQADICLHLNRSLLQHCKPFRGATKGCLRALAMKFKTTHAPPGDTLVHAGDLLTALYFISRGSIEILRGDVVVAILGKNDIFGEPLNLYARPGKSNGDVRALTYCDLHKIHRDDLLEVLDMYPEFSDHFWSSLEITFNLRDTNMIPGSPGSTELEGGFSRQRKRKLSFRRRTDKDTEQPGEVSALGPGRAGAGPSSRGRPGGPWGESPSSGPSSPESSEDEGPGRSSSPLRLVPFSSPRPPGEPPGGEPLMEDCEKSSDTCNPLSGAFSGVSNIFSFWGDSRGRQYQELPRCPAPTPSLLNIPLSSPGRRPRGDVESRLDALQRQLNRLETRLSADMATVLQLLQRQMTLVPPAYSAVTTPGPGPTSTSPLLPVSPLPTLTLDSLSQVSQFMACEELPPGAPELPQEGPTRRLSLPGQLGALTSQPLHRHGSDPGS
Chain of GSK3b (Glycogen synthase kinase-3 beta) (P49841 whole entry): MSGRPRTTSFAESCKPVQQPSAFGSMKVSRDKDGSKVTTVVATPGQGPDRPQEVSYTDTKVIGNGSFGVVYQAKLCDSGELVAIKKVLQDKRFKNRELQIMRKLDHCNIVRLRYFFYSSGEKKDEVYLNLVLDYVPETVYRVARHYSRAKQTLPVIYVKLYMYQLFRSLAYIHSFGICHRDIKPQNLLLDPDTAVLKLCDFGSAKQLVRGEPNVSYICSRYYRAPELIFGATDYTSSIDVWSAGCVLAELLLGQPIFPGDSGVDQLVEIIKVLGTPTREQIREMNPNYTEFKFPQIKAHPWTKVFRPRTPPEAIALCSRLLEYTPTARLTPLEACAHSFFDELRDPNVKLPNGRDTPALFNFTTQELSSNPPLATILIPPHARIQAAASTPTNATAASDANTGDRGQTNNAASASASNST

Molecule	IC50 [1] [nM]	IC50 [2] [µM]	IC50 (PCSK9 [3]) [nM]	IC50 (PCSK9 [4]) [nM]	Kd (PCSK9 [5]) [nM]	decrease in LDL levels (PCSK9 [6])
Cc1cccn(-c2ccc(N[C@H]3CC[C@H](Nc4nc5cccnc5[nH]4)C3)nc2)c1=O [Example 40, 6′-(((1S,3S)-3-((3H-Imidazo[4,5-b]pyridin-2-yl)amino)cyclopentyl)amino)-3-methyl-2H-[1,3′-bipyridin]-2-one]	> 40000	8.15	90	1.6	1	–
O=C(O)c1ccc(=O)n(-c2ccc(N[C@H]3CC[C@H](Nc4nc5cccnc5[nH]4)C3)nc2)c1 [Example 44, 6′-(((1S,3S)-3-((3H-Imidazo[4,5-b]pyridin-2-yl)amino)cyclopentyl)amino)-2-oxo-2H-[1,3′-bipyridine]-5-carboxylic acid]	> 40000	7.91	82	4.1	4	–
O=c1ccccn1-c1ccc(N[C@H]2CC[C@H](Nc3nc4cccnc4[nH]3)C2)nc1 [Example 46, 6′-(((1S,3S)-3-((3H-Imidazo[4,5-b]pyridin-2-yl)amino)cyclopentyl)amino)-2H-[1,3′-bipyridin]-2-one]	> 40000	0.425	102	4.4	6	–
O=c1ccccn1-c1ccc(N[C@H]2CC[C@H](Nc3nc4cc(CO)cnc4[nH]3)C2)nc1 [Example 61, 6′-(((1S,3S)-3-((6-(Hydroxymethyl)-3H-imidazo[4,5-b]pyridin-2-yl)amino)cyclopentyl)amino)-2H-[1,3′-bipyridin]-2-one]	> 40000	> 10	100	8.9	11	–
O=c1ccccn1-c1ccc(N[C@H]2CC[C@H](Nc3nc4c(Br)ccnc4[nH]3)C2)nc1 [Example 73, 6′-(((1S,3S)-3-((7-Bromo-3H-imidazo[4,5-b]pyridin-2-yl)amino)cyclopentyl)amino)-2H-[1,3′-bipyridin]-2-one]	> 40000	0.192	280	4.7	5	–
O=c1c2sccc2ccn1-c1ccc(N[C@H]2CC[C@H](Nc3nc4cccnc4s3)C2)nc1 [Example 76, 6-(6-(((1S,3S)-3-(Thiazolo[5,4-b]pyridin-2-ylamino)cyclopentyl)amino)pyridin-3-yl)thieno[2,3-c]pyridin-7(6H)-one]	2570	> 10	55	0.4	0.1	–
Cn1ccc(=O)n(-c2ccc(N[C@H]3CC[C@H](Nc4nc5cccnc5s4)C3)nc2)c1=O [Example 82, 1-Methyl-3-(6-(((1S,3S)-3-(thiazolo[5,4-b]pyridin-2-ylamino)cyclopentyl)amino)pyridin-3-yl)pyrimidine-2,4(1H,3H)-dione]	> 40100	> 10	124	2.3	1	–
O=c1[nH]c2ccsc2c(=O)n1-c1ccc(N[C@H]2CC[C@H](Nc3nc4cccnc4s3)C2)nc1 [Example 83, 3-(6-(((1S,3S)-3-(Thiazolo[5,4-b]pyridin-2-ylamino)cyclopentyl)amino)pyridin-3-yl)thieno[3,2-d]pyrimidine-2,4(1H,3H)-dione]	> 40100	> 10	79	0.5	0.1	–
alirocumab	–	–	–	–	–	about 50%
